Laboratory results: US20250268845A1, “BONE REGENERATION COMPOSITION INCLUDING HORDENINE AND USE THEREOF” ([…]., priority 2023, published 2025)

Tests used:
[1] = system: osteoarthritis induced by DMM; experiment: Cartilage regeneration in DMM-induced osteoarthritis, Safranin O and fast green staining; assay type: in vivo, mice; settings: 2 mg/kg intra-articularly for 4 weeks from week 5 after DMM, examined at week 9
Protocol: Specifically, osteoarthritis was induced by incising the ligament that stabilizes the medial meniscus in the joint tissue of 9-week-old mice. Starting from week 5 after destabilization of the medial meniscus (DMM), 2 mg/kg of hordenine was injected intra-articularly for 4 weeks, and at week 9, the mice were sacrificed and the joint tissues were examined by staining with Safranin O and fast green. The experimental process is illustrated in FIG. 2, and the experimental results are illustrated in FIGS. 3A and 3B.

[2] = system: osteoclasts; experiment: Dentin disc actin ring assay through immunofluorescence staining; assay type: cell-based, mice; settings: 10, 20, or 40 μM for 3 days, pre-osteoclasts from BMMs, compared to non-treatment; FIG. 5B
Protocol: (§1) Specifically, bone marrow-derived macrophages (BMMs) were isolated from 3- to 4-week-old mice and cultured. On day 5, the BMMs were treated with receptor activator of nuclear factors KB ligand (RANKL) and macrophage-colony stimulating factor (M-CSF) for 3 days to be differentiated into pre-osteoclasts. Thereafter, to confirm the degree of osteoclast activation, the pre-osteoclasts were treated with 10, 20, or 40 μM of hordenine for 3 days, and a bone resorption assay through hematoxylin staining and a dentin disc actin ring assay through immunofluorescence staining were performed to confirm the degree of osteoclast activation. Bone resorption assay is a method of seeding osteoclasts on a dentin disc, which is an experimental bone tissue simulating the dentin component of bone, and quantifying the extent to which osteoclasts eat away at the bone. When holes formed by bone erosion are quantified, the pit area is measured, and a lower measurement indicates a lower degree of bone erosion. The more extensively the disc is eroded, the more intensely the disc stains with hematoxylin, while less eroded areas stain more lightly. […]

[3] = system: osteoclasts; experiment: Bone resorption assay on dentin disc through hematoxylin staining; assay type: cell-based, mice; settings: 10, 20, or 40 μM for 3 days, pre-osteoclasts from BMMs, compared to non-treatment; FIG. 5A
Protocol: as §1

[4] = system: mesenchymal stem cells; experiment: Differentiation of mesenchymal stem cells into chondrocytes, Alcian blue staining; assay type: cell-based; settings: 5 or 10 µM hordenine, compared to the group treated only with a differentiation medium, FIG. 1
Protocol: Specifically, mesenchymal stem cells were seeded at 2.5×10^4 cells/48 well and divided into a group treated only with the basic medium α-MEM, a group treated only with a differentiation medium (Chondrogenic media (CM)), and groups treated with 5 or 10 µM hordenine. After a few days, the degree of chondrocyte differentiation was evaluated by Alcian blue staining.

[5] = system: osteoclasts; experiment: LPS-induced bone destruction in mouse skull, TRAP staining; assay type: in vivo, mice; settings: 1 mg/kg intra-calvarially for 5 days after LPS 12.5 mg/kg; skulls harvested 6 days after the first LPS injection day; compared to LPS only; FIG. 6
Protocol: Specifically, 12.5 mg/kg of lipopolysaccharide (LPS) was injected intra-calvarially into the skull of 5-week-old male mice twice in total: once on the first injection day and once 2 days after the first injection day, thereby inducing bone destruction. Thereafter, 1 mg/kg of hordenine was injected intra-calvarially for 5 days, starting 1 day after the first LPS injection day. 6 days after the first LPS injection day, the mice were sacrificed and the skulls were harvested from the mice. Then, the degree of osteoclast differentiation was evaluated by tartrate-resistant acid phosphatase (TRAP) staining. The results thereof are illustrated in FIG. 6.

CN(C)CCc1ccc(O)cc1 [hordenine, 4-(2-dimethylaminoethyl) phenol]
cartilage degradation (OARSI grade) [1]: decrease | osteophytes caused by osteoarthritis induction [1]: reduced | synovitis [1]: reduced | thickness of subchondral bone plate (SBP) [1]: reduced | cartilage (red portion) that had collapsed due to DMM ([1]; FIGS. 3A and 3B): restored | number of osteoclasts forming actin rings [2]: decreased in a concentration-dependent manner | hematoxylin staining (bone erosion of dentin disc) [3]: became lighter in a concentration-dependent manner | pit area [3]: reduced | degree of differentiation from mesenchymal stem cells into chondrocytes [4]: much higher | TRAP staining of skulls (degree of osteoclast differentiation) [5]: lightly stained with TRAP
